Source: patent publication US12077503B2, “Substituted cyclic amides and their use as herbicides” (FMC CORPORATION, priority 2015, dated 2024)

What was measured:
Assay type in all cases: in vivo
Kochia (Kochia scoparia) [1] = experiment: Test A preemergence; conditions: Bassia scoparia, pre-emergence, 240 h, Preemergence
How it was run: (§1)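 Treatment is preemergence as a directed soil spray after planting, or postemergence at the one- to two-leaf stage, with test chemical in a non-phytotoxic solvent mixture plus surfactant. Plants stay in the greenhouse about 10 d before visual injury scoring on a 0 to 100 scale versus untreated controls.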

[2] = system: barnyardgrass (Echinochloa crus-galli); experiment: Test A preemergence; conditions: Echinochloa crus-galli, pre-emergence, 240 h, Preemergence
How it was run: as §1

[3] = system: giant foxtail (Setaria faberii); experiment: Test A preemergence; conditions: Setaria faberi, pre-emergence, 240 h, Preemergence
How it was run: as §1

[4] = system: pigweed (Amaranthus retroflexus); experiment: Test A preemergence; conditions: Amaranthus retroflexus, pre-emergence, 240 h, Preemergence
[5] = system: ragweed (common ragweed, Ambrosia elatior); experiment: Test A preemergence; conditions: Ambrosia artemisiifolia, pre-emergence, 240 h, Preemergence
How it was run: as §1

[6] = system: ryegrass, Italian (Italian ryegrass, Lolium multiflorum); experiment: Test A preemergence; conditions: Lolium multiflorum, pre-emergence, 240 h, Preemergence
How it was run: as §1

[7] = system: Galium (catchweed bedstraw, Galium aparine); experiment: Test A postemergence; conditions: Galium, post-emergence, 240 h, Postemergence, read-out: Plant response rating, Galium
How it was run: as §1

Kochia (Kochia scoparia) [8] = experiment: Test A postemergence; conditions: Bassia scoparia, post-emergence, 240 h, Postemergence, read-out: Plant response rating, Kochia
How it was run: as §1

[9] = system: barnyardgrass (Echinochloa crus-galli); experiment: Test A postemergence; conditions: Echinochloa crus-galli, post-emergence, 240 h, Postemergence, read-out: Plant response rating, Barnyardgrass
How it was run: as §1

[10] = system: blackgrass (Alopecurus myosuroides); experiment: Test A postemergence; conditions: Alopecurus myosuroides, post-emergence, 240 h, Postemergence, read-out: Plant response rating, Blackgrass
How it was run: as §1

corn (Zea mays) = experiment: Test A postemergence; conditions: Zea mays, post-emergence, 240 h, Postemergence
How it was run: as §1

[11] = system: giant foxtail (Setaria faberii); experiment: Test A postemergence; conditions: Setaria faberi, post-emergence, 240 h, Postemergence, read-out: Plant response rating, Foxtail, Giant
How it was run: as §1

[12] = system: pigweed (Amaranthus retroflexus); experiment: Test A postemergence; conditions: Amaranthus retroflexus, post-emergence, 240 h, Postemergence, read-out: Plant response rating, Pigweed
How it was run: as §1

[13] = system: ragweed (common ragweed, Ambrosia elatior); experiment: Test A postemergence; conditions: Ambrosia artemisiifolia, post-emergence, 240 h, Postemergence, read-out: Plant response rating, Ragweed
How it was run: as §1

[14] = system: ryegrass, Italian (Italian ryegrass, Lolium multiflorum); experiment: Test A postemergence; conditions: Lolium multiflorum, post-emergence, 240 h, Postemergence, read-out: Plant response rating, Ryegrass, Italian
How it was run: as §1

[15] = system: wheat (Triticum aestivum); experiment: Test A postemergence; conditions: Triticum aestivum, post-emergence, 240 h, Postemergence, read-out: Plant response rating, Wheat
How it was run: as §1

[16] = system: barnyardgrass (Echinochloa crus-galli); experiment: Test B flooded paddy test; conditions: Echinochloa crus-galli, 250 g ai/ha, Flood; 0 to 100 scale where 0 is no effect and 100 is complete control; read-out: Barnyardgrass plant response rating
How it was run: (§2)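 Compound goes directly into floodwater once pots are flooded 3 cm above soil, targeting plants at two leaves; the water depth is then held for the test duration. Plants sit 13–15 d in a greenhouse and are rated visually, 100 denoting complete control.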

[17] = system: ducksalad (Heteranthera limosa); experiment: Test B flooded paddy test; conditions: Heteranthera limosa, 250 g ai/ha, Flood; 0 to 100 scale where 0 is no effect and 100 is complete control; read-out: Ducksalad plant response rating
How it was run: as §2

rice (Oryra sativa) = experiment: Test B flooded paddy test; conditions: Oryza sativa, 250 g ai/ha, Flood; 0 to 100 scale where 0 is no effect and 100 is complete control; read-out: Rice plant response rating
How it was run: as §2

[18] = system: sedge, umbrella (small-flower umbrella sedge, Cyperus difformis); experiment: Test B flooded paddy test; conditions: Cyperus difformis, 250 g ai/ha, Flood; 0 to 100 scale where 0 is no effect and 100 is complete control; read-out: Sedge, Umbrella plant response rating
How it was run: as §2

[19] = 125 g ai/ha, visual injury after approximately 10 d, 0 to 100 scale where 0 is no effect and 100 is complete control
[20] = 31 g ai/ha, visual injury after approx. 10 d, 0 to 100 scale, 0 no effect, 100 complete control

CC(C)=CC1CNC(=O)C1C(=O)Nc1ccccc1F (stereo not drawn) [Compound 1011]
0%: pest or weed control at 31 g/ha (Kochia (Kochia scoparia) [1]; 31 g ai/ha, 0 to 100 scale where 0 is no effect and 100 is complete control, read-out: Kochia plant response rating) | pest or weed control at 125 g/ha (Kochia (Kochia scoparia) [1]; 125 g ai/ha, visual injury rating after approximately 10 d, read-out: Kochia plant response rating (0 to 100 scale, 0 is no effect, 100 is complete control)) | pest or weed control at 125 g/ha ([2]; 125 g ai/ha, visual injury rating after approximately 10 d, read-out: Barnyardgrass plant response rating (0 to 100 scale, 0 is no effect, 100 is complete control)) | pest or weed control at 31 g/ha ([2]; 31 g ai/ha, 0 to 100 scale (0 no effect, 100 complete control), read-out: Plant response rating, Barnyardgrass) | pest or weed control at 125 g/ha ([3]; 125 g ai/ha, visual injury rating after approximately 10 d, read-out: Foxtail, Giant plant response rating (0 to 100 scale, 0 is no effect, 100 is complete control)) | pest or weed control at 31 g/ha ([3]; 31 g ai/ha, 0 to 100 scale (0 no effect, 100 complete control), read-out: Plant response rating, Foxtail, Giant) | pest or weed control at 31 g/ha ([4]; 31 g ai/ha, 0 to 100 scale where 0 is no effect and 100 is complete control, read-out: Pigweed plant response rating) | pest or weed control at 125 g/ha ([4]; 125 g ai/ha, visual injury rating after approximately 10 d, read-out: Pigweed plant response rating (0 to 100 scale, 0 is no effect, 100 is complete control)) | pest or weed control at 31 g/ha ([5]; 31 g ai/ha, 0 to 100 scale where 0 is no effect and 100 is complete control, read-out: Ragweed plant response rating) | pest or weed control at 125 g/ha ([5]; 125 g ai/ha, visual injury rating after approximately 10 d, read-out: Ragweed plant response rating (0 to 100 scale, 0 is no effect, 100 is complete control)) | pest or weed control at 31 g/ha ([6]; 31 g ai/ha, 0 to 100 scale where 0 is no effect and 100 is complete control, read-out: Ryegrass, Italian plant response rating) | pest or weed control at 125 g/ha ([6]; 125 g ai/ha, visual injury rating after approximately 10 d, read-out: Ryegrass, Italian plant response rating (0 to 100 scale, 0 is no effect, 100 is complete control)) | pest or weed control at 125 g/ha [7, 19] | pest or weed control at 31 g/ha [7, 20] | pest or weed control at 125 g/ha (Kochia (Kochia scoparia) [8]; [19]) | pest or weed control at 31 g/ha (Kochia (Kochia scoparia) [8]; [20]) | pest or weed control at 125 g/ha [9, 19] | pest or weed control at 31 g/ha [9, 20] | pest or weed control at 125 g/ha [10, 19] | pest or weed control at 31 g/ha [10, 20] | Corn plant response rating (crop injury, 0 = no effect, 100 = complete kill) at 125 g/ha (corn (Zea mays); [19]) | Corn plant response rating (crop injury, 0 = no effect, 100 = complete kill) at 31 g/ha (corn (Zea mays); [20]) | pest or weed control at 125 g/ha [11, 19] | pest or weed control at 31 g/ha [11, 20] | pest or weed control at 125 g/ha [12, 19] | pest or weed control at 31 g/ha [12, 20] | pest or weed control at 125 g/ha [13, 19] | pest or weed control at 31 g/ha [13, 20] | pest or weed control at 125 g/ha [14, 19] | pest or weed control at 31 g/ha [14, 20] | plant injury at 125 g/ha [15, 19] | plant injury at 31 g/ha [15, 20] | pest or weed control at 250 g/ha [16] | pest or weed control at 250 g/ha [17] | pest or weed control at 250 g/ha (rice (Oryra sativa)) | pest or weed control at 250 g/ha [18]
